{
  "source": "PubChem BioAssay AID328",
  "about": "(DTP/NCI, 2004)",
  "tested_on": "BDF1 mice, P388 leukemia ip, median survival T/C",
  "assay": "NCI In Vivo Anticancer Drug Screen. Data for tumor model P388 Leukemia (intraperitoneal) in B6D2F1 (BDF1) mice",
  "details": "endpoint: median survival time, higher = longer survival",
  "summary_of_the_method": "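T/C = treated-group survival ÷ vehicle-control survival; tumour transplanted into mice before dosing.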",
  "key": {"[1]": {"details": "dose: 50.0 mg/kg/injection, schedule: Q01DX009 (ip), vehicle: saline with Tween-80"}, "[2]": {"details": "dose: 100.0 mg/kg/injection, schedule: Q01DX009 (ip), vehicle: saline with Tween-80"}},
  "note": "Inconclusive results and toxic doses are left out.",
  "data": [
    {"compound": "OC1C2CCC(CC2)C1O", "note": "(configuration not stated)", "values": [
      {"measurement": "T/C", "setting": "dose: 4.5 mg/kg/injection, schedule: Q01DX009 (ip), vehicle: saline with Tween-80", "value": "100 % of control"},
      {"measurement": "T/C", "setting": "dose: 9.0 mg/kg/injection, schedule: Q01DX009 (ip), vehicle: saline with Tween-80", "value": "86 % of control"},
      {"measurement": "T/C", "setting": "dose: 9.0 mg/kg/injection, schedule: Q04DX003 (ip), vehicle: saline with Tween-80", "value": "90 % of control"},
      {"measurement": "T/C", "setting": "dose: 18.0 mg/kg/injection, schedule: Q04DX003 (ip), vehicle: saline with Tween-80", "value": "90 % of control"}
    ]},
    {"compound": "CCN(CC)c1c(-c2ccccc2)nnc2c3ccccc3nn12", "values": [
      {"measurement": "T/C", "setting": "dose: 25.0 mg/kg/injection, schedule: Q01DX009 (ip), vehicle: saline with Tween-80", "value": "100 % of control"},
      {"measurement": "T/C", "setting": "[1]", "value": "88 % of control"},
      {"measurement": "T/C", "setting": "[2]", "value": "100 % of control"}
    ]},
    {"compound": "COC(=O)C1=C(C)N[C@@]2(C)[C@H](C(=O)OC)C[C@H]1C2(C(C)=O)C(C)=O", "values": [
      {"measurement": "T/C", "setting": "[1]", "value": "116 % of control"},
      {"measurement": "T/C", "setting": "[2]", "value": "109 % of control"},
      {"measurement": "T/C", "setting": "dose: 200.0 mg/kg/injection, schedule: Q01DX009 (ip), vehicle: saline with Tween-80", "value": "109 % of control"}
    ]},
    {"compound": "NNC(=O)C(O)C(O)C(=O)NN", "note": "(configuration not stated)", "values": [
      {"measurement": "T/C", "setting": "dose: 60.0 mg/kg/injection, schedule: Q01DX009 (ip), vehicle: saline", "value": "96 % of control"},
      {"measurement": "T/C", "setting": "dose: 120.0 mg/kg/injection, schedule: Q01DX009 (ip), vehicle: saline", "value": "93 % of control"}
    ]},
    {"compound": "CCCC#CC#N", "values": [
      {"measurement": "T/C", "setting": "dose: 25.0 mg/kg/injection, schedule: Q01DX009 (ip), vehicle: olive oil, sesame oil, peanut oil", "value": "104 % of control"},
      {"measurement": "T/C", "setting": "dose: 50.0 mg/kg/injection, schedule: Q01DX009 (ip), vehicle: olive oil, sesame oil, peanut oil", "value": "91 % of control"}
    ]},
    {"compound": "CCN(CC)CCNc1ccc(C)c2sc3ccc(O)cc3c(=O)c12", "values": [
      {"measurement": "T/C", "setting": "[1]", "value": "183 % of control"},
      {"measurement": "T/C", "setting": "[2]", "value": "94 % of control"}
    ]},
    {"compound": "Cc1cnc2nc(N)[nH]c(=O)c2c1", "values": [
      {"measurement": "T/C", "setting": "dose: 37.5 mg/kg/injection, schedule: Q04DX003 (ip), vehicle: saline sonified", "value": "100 % of control"},
      {"measurement": "T/C", "setting": "dose: 75.0 mg/kg/injection, schedule: Q04DX003 (ip), vehicle: saline sonified", "value": "110 % of control"},
      {"measurement": "T/C", "setting": "dose: 150.0 mg/kg/injection, schedule: Q04DX003 (ip), vehicle: saline sonified", "value": "100 % of control"}
    ]},
    {"compound": "CC[C@H]1CN2CCc3cc(OC)c(OC)cc3[C@@H]2C[C@@H]1C[C@H]1NCCc2c1[nH]c1ccc(O)cc21", "values": [
      {"measurement": "T/C", "setting": "dose: 2.0 mg/kg/injection, schedule: Q04DX003 (ip), vehicle: saline + alcohol", "value": "186 % of control"},
      {"measurement": "T/C", "setting": "dose: 4.0 mg/kg/injection, schedule: Q04DX003 (ip), vehicle: saline + alcohol", "value": "183 % of control"}
    ]},
    {"compound": "O=C(O)CCSSc1ccc([N+](=O)[O-])cc1[N+](=O)[O-]", "values": [
      {"measurement": "T/C", "setting": "dose: 6.25 mg/kg/injection, schedule: Q01DX009 (ip), vehicle: Klucel (hydroxypropylcellulose) (HPC)", "value": "95 % of control"},
      {"measurement": "T/C", "setting": "dose: 6.25 mg/kg/injection, schedule: Q04DX003 (ip), vehicle: Klucel (hydroxypropylcellulose) (HPC)", "value": "100 % of control"},
      {"measurement": "T/C", "setting": "dose: 12.5 mg/kg/injection, schedule: Q01DX009 (ip), vehicle: Klucel (hydroxypropylcellulose) (HPC)", "value": "100 % of control"},
      {"measurement": "T/C", "setting": "dose: 12.5 mg/kg/injection, schedule: Q04DX003 (ip), vehicle: Klucel (hydroxypropylcellulose) (HPC)", "value": "109 % of control"},
      {"measurement": "T/C", "setting": "dose: 25.0 mg/kg/injection, schedule: Q01DX009 (ip), vehicle: Klucel (hydroxypropylcellulose) (HPC)", "value": "104 % of control"},
      {"measurement": "T/C", "setting": "dose: 25.0 mg/kg/injection, schedule: Q04DX003 (ip), vehicle: Klucel (hydroxypropylcellulose) (HPC)", "value": "109 % of control"}
    ]},
    {"compound": "Cc1ccn(-c2ccccc2)n1", "values": [
      {"measurement": "T/C", "setting": "dose: 100.0 mg/kg/injection, schedule: Q04DX003 (ip), vehicle: other", "value": "104 % of control"},
      {"measurement": "T/C", "setting": "dose: 200.0 mg/kg/injection, schedule: Q04DX003 (ip), vehicle: other", "value": "113 % of control"},
      {"measurement": "T/C", "setting": "dose: 400.0 mg/kg/injection, schedule: Q04DX003 (ip), vehicle: other", "value": "113 % of control"}
    ]},
    {"compound": "Cn1cc(NC(=O)c2cc(NC(=O)c3cc(NC=O)cn3C)cn2C)cc1C(=O)NCCC(=N)N", "values": [
      {"measurement": "T/C", "setting": "dose: 110.0 mg/kg/injection, schedule: Q04DX003 (ip), vehicle: Klucel (hydroxypropylcellulose) (HPC)", "value": "113 % of control"},
      {"measurement": "T/C", "setting": "dose: 170.0 mg/kg/injection, schedule: Q04DX003 (ip), vehicle: Klucel (hydroxypropylcellulose) (HPC)", "value": "109 % of control"},
      {"measurement": "T/C", "setting": "dose: 255.0 mg/kg/injection, schedule: Q04DX003 (ip), vehicle: Klucel (hydroxypropylcellulose) (HPC)", "value": "104 % of control"}
    ]},
    {"compound": "CCCCC(CC)COC(=O)/C=C/C(=O)OCC(CC)CCCC", "note": "(configuration not stated)", "values": [
      {"measurement": "T/C", "setting": "dose: 100.0 mg/kg/injection, schedule: Q01DX009 (ip), vehicle: Klucel (hydroxypropylcellulose) (HPC)", "value": "86 % of control"},
      {"measurement": "T/C", "setting": "dose: 200.0 mg/kg/injection, schedule: Q01DX009 (ip), vehicle: Klucel (hydroxypropylcellulose) (HPC)", "value": "86 % of control"}
    ]},
    {"compound": "Nc1nc2ccccc2[nH]1", "values": [
      {"measurement": "T/C", "setting": "dose: 50.0 mg/kg/injection, schedule: Q01DX009 (ip), vehicle: saline", "value": "105 % of control"},
      {"measurement": "T/C", "setting": "dose: 100.0 mg/kg/injection, schedule: Q01DX009 (ip), vehicle: saline", "value": "102 % of control"}
    ]}
  ]
}
